Experiments:
[1] = biological target: Ba/F3 EGFR-Del19/T790M/C797S (Homo sapiens, UniProt P00533, T790M/C797S, cells depend on it, form not given); experiment: Ba/F3 viability assay (CellTiter-Glo), EGFR-Del19/T790M/C797S (DTC); assay type: cell-based; settings: Ba/F3 EGFR-Del19/T790M/C797S anti-proliferation; read-out: BAF3 DTC IC50
Excerpt: (§1) Inhibition of cell proliferation can be studied using Ba/F3 viability assays, including the Promega CellTiter-Glo cell viability assay. This assay can be used to study the effect of compounds described herein in the following assays: (1) Ba/F3 Parental; (2) Ba/F3 EGFR-Del19/T790M; (3); Ba/F3 EGFR-Del19/C797S; and (4) Ba/F3 EGFR-Del119/T790M/C797S.
(§2) One hundred thirty six compounds were studied using the kinase (EGFR) and BA/F3 assays described herein, with more than 60% of the tested compounds providing IC50<50 nM values in all six assays. Accordingly, compounds of the invention are a new general class of kinase inhibitors, including potent inhibitors of EGFR mutants.
(§3) Exemplary kinase inhibition (Kinase) and anti-proliferation activity (Ba/F3) data are shown in Table 1 for certain compounds of the invention and are categorized according to the below legend.

EGFR^L858R = EGFR^L858R (Homo sapiens, UniProt P00533, L858R); experiment: HTRF KinEASE-TK in vitro kinase assay, EGFR L858R (L); assay type: biochemical; settings: EGFR L858R kinase inhibition
EGFR^L858R, sequence (P00533 25-1210 L858R): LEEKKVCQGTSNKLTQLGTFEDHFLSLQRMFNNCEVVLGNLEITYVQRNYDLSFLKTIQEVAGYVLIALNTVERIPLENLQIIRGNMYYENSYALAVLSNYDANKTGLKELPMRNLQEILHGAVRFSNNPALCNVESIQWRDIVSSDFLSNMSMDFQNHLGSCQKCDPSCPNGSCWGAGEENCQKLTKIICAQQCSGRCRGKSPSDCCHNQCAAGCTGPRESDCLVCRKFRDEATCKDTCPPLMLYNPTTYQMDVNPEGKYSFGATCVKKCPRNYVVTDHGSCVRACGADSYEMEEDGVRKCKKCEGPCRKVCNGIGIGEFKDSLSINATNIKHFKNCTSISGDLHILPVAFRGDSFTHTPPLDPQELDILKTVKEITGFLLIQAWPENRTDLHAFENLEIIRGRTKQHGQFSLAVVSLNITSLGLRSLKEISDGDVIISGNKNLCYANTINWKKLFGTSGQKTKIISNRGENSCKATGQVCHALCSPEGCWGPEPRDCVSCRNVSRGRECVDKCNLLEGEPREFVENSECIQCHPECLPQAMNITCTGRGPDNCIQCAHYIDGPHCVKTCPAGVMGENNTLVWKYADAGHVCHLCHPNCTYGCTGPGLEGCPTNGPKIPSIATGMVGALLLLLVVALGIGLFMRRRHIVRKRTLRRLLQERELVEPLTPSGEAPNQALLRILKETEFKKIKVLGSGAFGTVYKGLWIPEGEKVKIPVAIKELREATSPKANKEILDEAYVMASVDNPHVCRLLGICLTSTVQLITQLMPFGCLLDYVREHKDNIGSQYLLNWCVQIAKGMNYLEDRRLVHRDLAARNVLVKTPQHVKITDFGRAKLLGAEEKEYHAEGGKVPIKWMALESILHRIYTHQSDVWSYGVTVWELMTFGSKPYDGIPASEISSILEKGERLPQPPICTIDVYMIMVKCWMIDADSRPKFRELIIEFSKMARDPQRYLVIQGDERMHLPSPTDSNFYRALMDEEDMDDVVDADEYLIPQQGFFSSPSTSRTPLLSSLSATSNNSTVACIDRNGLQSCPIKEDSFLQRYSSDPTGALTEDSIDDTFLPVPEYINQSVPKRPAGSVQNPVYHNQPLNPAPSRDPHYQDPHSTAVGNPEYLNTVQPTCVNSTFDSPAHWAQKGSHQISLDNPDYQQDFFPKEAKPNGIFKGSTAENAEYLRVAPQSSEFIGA
Excerpt: (§4) The biological activity of compounds described herein can be studied according to standard methods known in the art. Methods can be used to study inhibition of EGFR, including mutant forms of EGFR comprising L858R, T790M, C797S, and/or Del19 mutations, or any combination thereof (e.g., L858R single, double, or triple mutants). Exemplary, non-limiting methods are described herein.
(§5) Assays using an in vitro kinase assay kit (HTRF KinEASE-TK kit) can be used to study the inhibitory activity of compounds described herein with respect to EGFR mutants such as ECFR^L858R, EGFR^L858R/T790M, and EGFR^L858R/T790M/C797S.
as §2, §3

EGFR^L858R/T790M = EGFR^L858R/T790M (Homo sapiens, UniProt P00533, L858R/T790M); experiment: HTRF KinEASE-TK in vitro kinase assay, EGFR L858R/T790M (LT); assay type: biochemical; settings: EGFR L858R/T790M kinase inhibition
EGFR^L858R/T790M, sequence (P00533 25-1210 T790M/L858R): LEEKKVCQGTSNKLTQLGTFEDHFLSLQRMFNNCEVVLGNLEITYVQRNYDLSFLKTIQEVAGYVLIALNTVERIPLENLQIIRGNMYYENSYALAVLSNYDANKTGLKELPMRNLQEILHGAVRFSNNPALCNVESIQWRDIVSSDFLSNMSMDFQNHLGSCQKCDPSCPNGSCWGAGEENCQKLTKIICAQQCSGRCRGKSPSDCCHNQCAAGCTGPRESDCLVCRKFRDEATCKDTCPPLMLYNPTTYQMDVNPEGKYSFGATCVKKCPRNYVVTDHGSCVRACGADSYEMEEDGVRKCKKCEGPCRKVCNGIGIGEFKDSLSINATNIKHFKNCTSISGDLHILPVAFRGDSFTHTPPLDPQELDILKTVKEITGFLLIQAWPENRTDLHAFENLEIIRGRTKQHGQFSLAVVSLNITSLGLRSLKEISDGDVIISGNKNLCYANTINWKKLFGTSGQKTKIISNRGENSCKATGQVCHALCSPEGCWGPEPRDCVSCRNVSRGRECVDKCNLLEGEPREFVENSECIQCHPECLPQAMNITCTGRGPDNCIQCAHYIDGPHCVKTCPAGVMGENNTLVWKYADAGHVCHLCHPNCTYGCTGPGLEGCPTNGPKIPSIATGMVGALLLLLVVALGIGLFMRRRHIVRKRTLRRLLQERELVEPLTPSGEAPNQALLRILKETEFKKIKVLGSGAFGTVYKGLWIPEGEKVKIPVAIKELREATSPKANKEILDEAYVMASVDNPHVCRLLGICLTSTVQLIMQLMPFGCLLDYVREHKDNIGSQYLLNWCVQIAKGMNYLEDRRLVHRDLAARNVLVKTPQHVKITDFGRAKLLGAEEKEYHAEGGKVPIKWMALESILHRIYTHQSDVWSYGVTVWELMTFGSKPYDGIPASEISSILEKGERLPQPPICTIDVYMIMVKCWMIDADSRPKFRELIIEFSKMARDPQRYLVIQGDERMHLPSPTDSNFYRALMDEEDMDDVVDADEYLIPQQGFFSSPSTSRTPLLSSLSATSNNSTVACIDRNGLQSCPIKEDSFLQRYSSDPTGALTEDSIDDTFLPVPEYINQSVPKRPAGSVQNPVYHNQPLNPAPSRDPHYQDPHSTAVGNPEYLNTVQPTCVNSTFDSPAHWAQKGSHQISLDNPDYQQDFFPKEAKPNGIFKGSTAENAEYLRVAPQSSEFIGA
Excerpt: as §4, §5, §2, §3

EGFR^L858R/T790M/C797S = EGFR^L858R/T790M/C797S (Homo sapiens, UniProt P00533, C797S/L858R/T790M); experiment: HTRF KinEASE-TK in vitro kinase assay, EGFR L858R/T790M/C797S (LTC); assay type: biochemical; settings: EGFR L858R/T790M/C797S kinase inhibition
Excerpt: as §4, §5, §2, §3

Ba/F3 EGFR-Del19/C797S = Ba/F3 EGFR-Del19/C797S (Homo sapiens, UniProt P00533, C797S, cells depend on it, form not given); experiment: Ba/F3 viability assay (CellTiter-Glo), EGFR-Del19/C797S (DC); assay type: cell-based; settings: Ba/F3 EGFR-Del19/C797S anti-proliferation; read-out: BAF3 DC IC50
Excerpt: as §1, §2, §3

Ba/F3 EGFR-Del19/T790M = Ba/F3 EGFR-Del19/T790M (Homo sapiens, UniProt P00533, T790M, cells depend on it, form not given); experiment: Ba/F3 viability assay (CellTiter-Glo), EGFR-Del19/T790M (DT); assay type: cell-based; settings: Ba/F3 EGFR-Del19/T790M anti-proliferation; read-out: BAF3 DT IC50
Ba/F3 EGFR-Del19/T790M, sequence (P00533 with tags, fused parts or gaps DEL746-750/T790M, form open): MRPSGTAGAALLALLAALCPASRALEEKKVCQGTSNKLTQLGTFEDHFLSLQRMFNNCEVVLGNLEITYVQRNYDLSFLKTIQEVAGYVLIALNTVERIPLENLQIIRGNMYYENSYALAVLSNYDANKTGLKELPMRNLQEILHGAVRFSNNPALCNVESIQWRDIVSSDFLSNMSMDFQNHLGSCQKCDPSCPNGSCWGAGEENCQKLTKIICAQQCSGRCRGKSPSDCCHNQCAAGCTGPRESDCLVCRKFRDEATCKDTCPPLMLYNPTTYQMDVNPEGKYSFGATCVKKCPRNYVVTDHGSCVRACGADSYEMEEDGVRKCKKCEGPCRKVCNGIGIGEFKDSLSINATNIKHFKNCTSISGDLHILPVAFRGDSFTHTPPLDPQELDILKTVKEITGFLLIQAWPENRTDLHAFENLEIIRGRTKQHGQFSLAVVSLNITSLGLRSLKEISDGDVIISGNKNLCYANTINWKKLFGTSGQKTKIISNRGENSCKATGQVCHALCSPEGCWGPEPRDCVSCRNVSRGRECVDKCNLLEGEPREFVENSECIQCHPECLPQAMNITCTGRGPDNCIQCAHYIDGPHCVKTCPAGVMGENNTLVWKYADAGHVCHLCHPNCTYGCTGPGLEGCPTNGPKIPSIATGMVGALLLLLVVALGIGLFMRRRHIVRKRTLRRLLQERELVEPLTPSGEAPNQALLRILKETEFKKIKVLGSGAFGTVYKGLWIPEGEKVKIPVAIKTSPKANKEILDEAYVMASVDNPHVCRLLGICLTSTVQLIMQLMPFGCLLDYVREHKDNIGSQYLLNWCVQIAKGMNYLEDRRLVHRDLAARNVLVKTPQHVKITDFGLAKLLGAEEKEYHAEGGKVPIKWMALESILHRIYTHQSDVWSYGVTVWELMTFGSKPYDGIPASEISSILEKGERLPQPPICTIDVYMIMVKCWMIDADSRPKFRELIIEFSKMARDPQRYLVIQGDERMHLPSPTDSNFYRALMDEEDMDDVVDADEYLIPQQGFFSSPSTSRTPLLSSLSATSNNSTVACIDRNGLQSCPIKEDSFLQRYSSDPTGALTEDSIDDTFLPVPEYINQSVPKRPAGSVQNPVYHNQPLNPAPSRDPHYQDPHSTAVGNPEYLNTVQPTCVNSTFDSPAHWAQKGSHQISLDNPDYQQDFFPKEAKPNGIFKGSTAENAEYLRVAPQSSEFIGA
Excerpt: as §1, §2, §3

Ba/F3 EGFR-Del19/T790M/C797S, sequence (P00533 with tags, fused parts or gaps DEL746-750/T790M/C797S, form open): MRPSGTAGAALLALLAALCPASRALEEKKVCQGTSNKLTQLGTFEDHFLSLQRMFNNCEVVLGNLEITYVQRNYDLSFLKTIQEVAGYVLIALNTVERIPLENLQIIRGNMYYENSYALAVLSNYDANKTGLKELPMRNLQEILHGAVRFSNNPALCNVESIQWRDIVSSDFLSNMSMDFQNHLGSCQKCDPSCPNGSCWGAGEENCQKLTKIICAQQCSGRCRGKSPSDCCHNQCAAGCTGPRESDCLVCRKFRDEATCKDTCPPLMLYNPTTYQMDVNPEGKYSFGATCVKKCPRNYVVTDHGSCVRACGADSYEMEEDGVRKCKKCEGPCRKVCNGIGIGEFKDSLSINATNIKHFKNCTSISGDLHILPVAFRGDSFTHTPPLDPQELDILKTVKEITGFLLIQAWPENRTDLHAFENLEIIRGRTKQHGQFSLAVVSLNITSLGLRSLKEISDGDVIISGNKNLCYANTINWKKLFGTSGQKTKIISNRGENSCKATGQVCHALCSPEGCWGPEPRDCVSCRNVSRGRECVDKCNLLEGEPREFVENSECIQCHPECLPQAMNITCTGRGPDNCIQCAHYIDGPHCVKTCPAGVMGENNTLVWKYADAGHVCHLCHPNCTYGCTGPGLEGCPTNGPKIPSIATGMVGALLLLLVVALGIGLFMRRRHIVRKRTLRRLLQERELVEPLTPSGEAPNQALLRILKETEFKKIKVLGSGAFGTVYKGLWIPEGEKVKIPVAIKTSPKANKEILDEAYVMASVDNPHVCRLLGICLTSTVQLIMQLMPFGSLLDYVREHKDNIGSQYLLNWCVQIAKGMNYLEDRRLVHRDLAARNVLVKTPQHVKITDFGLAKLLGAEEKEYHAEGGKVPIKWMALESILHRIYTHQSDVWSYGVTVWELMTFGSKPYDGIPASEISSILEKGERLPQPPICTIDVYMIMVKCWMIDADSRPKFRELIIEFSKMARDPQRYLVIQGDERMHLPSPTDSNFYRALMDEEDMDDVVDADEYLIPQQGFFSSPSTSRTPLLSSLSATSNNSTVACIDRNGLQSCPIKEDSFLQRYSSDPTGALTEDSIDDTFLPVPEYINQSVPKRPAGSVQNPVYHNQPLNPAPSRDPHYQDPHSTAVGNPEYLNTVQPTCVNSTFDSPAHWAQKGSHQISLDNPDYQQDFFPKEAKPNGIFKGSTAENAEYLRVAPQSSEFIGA

Compound | IC50 (EGFR^L858R) | IC50 (EGFR^L858R/T790M) | IC50 (EGFR^L858R/T790M/C797S) | GI50 [1] | GI50 (Ba/F3 EGFR-Del19/C797S) | GI50 (Ba/F3 EGFR-Del19/T790M)
CCOc1nn(C2CC(C)(C)OC(C)(C)C2)cc1-c1cnc2cc1O[C@@H](C)CCOc1c(cnn1C)-c1nccc(n1)N2 [(33)] | < 0.05 µM | < 0.05 µM | < 0.05 µM | < 0.05 µM | 0.05 to 0.1 µM | 0.05 to 0.1 µM
CCOc1nn(-c2ccncc2)cc1-c1cnc2cc1O[C@@H](C)CCOc1c(cnn1C)-c1nccc(n1)N2 [(34)] | < 0.05 µM | < 0.05 µM | < 0.05 µM | < 0.05 µM | < 0.05 µM | 0.05 to 0.1 µM
CCOc1ncc(C)cc1-c1cnc2cc1O[C@@H](C)CCOc1c(cnn1C)-c1nccc(n1)N2 [(35)] | ≥ 1 µM | < 0.05 µM | 0.1 to 1 µM | 0.1 to 1 µM | ≥ 1 µM | 0.1 to 1 µM
CCOc1nn(C2CC3CCC(C2)N3C)cc1-c1cnc2cc1O[C@@H](C)CCOc1c(cnn1C)-c1nccc(n1)N2 (stereo partly drawn) [(37)] | < 0.05 µM | < 0.05 µM | < 0.05 µM | < 0.05 µM | < 0.05 µM | < 0.05 µM
CCCOc1nn(C2CC2)cc1-c1cnc2cc1O[C@@H](C)CCOc1c(cnn1C)-c1nccc(n1)N2 [(42)] | < 0.05 µM | < 0.05 µM | < 0.05 µM | < 0.05 µM | < 0.05 µM | < 0.05 µM
C[C@H]1CCOc2c(cnn2C)-c2nccc(n2)Nc2cc(c(-c3cn(C)cc3OCC(F)(F)F)cn2)O1 [(48), (10S)-5,10-dimethyl-13-[1-methyl-4-(2,2,2-trifluoroethoxy)pyrrol-3-yl]-7,11-dioxa-4,5,15,17,21,22-hexazatetracyclo[16.3.1.1^12,16.0^2,6]tricosa-1(22),2(6),3,12(23),13,15,18,20-octaene] | < 0.05 µM | < 0.05 µM | < 0.05 µM | < 0.05 µM | < 0.05 µM | < 0.05 µM
C[C@H]1CCOc2c(cnn2C)-c2nccc(n2)Nc2cc(c(-c3cn(CCN4CCCC4)nc3OCC(F)(F)F)cn2)O1 [(56)] | < 0.05 µM | < 0.05 µM | < 0.05 µM | < 0.05 µM | < 0.05 µM | < 0.05 µM
C[C@H]1CCOc2c(cnn2C)-c2nccc(n2)Nc2cc(c(Nc3ccn(C)n3)cn2)O1 [(70)] | < 0.05 µM | < 0.05 µM | < 0.05 µM | < 0.05 µM | < 0.05 µM | < 0.05 µM
C[C@H]1CCOc2c(cnn2C)-c2nccc(n2)Nc2cc(c(-c3cc4ccccc4n3C)cn2)O1 [(74)] | ≥ 1 µM | 0.1 to 1 µM | 0.1 to 1 µM | 0.1 to 1 µM | ≥ 1 µM | 0.1 to 1 µM
C[C@H]1CCOc2c(cnn2C)-c2nccc(n2)Nc2cc(c(-c3ccc4c(ccn4C)c3)cn2)O1 [(75)] | 0.05 to 0.1 µM | < 0.05 µM | < 0.05 µM | < 0.05 µM | 0.1 to 1 µM | 0.05 to 0.1 µM
C[C@H]1CCOc2c(cnn2C)-c2nccc(n2)Nc2cc(c(-c3cnc(N4CCN(C)CC4)n3C)cn2)O1 [(77)] | < 0.05 µM | < 0.05 µM | < 0.05 µM | < 0.05 µM | 0.1 to 1 µM | 0.05 to 0.1 µM
Cc1c(-c2cnc3cc2O[C@@H](C)CCOc2c(cnn2C)-c2nccc(n2)N3)cnn1C1CCN(CCCF)CC1 [(84)] | < 0.05 µM | < 0.05 µM | < 0.05 µM | < 0.05 µM | < 0.05 µM | < 0.05 µM
Cc1nn(C2CCN(CCF)CC2)cc1-c1cnc2cc1O[C@@H](C)CCOc1c(cnn1C)-c1nccc(n1)N2 [(85)] | < 0.05 µM | < 0.05 µM | < 0.05 µM | < 0.05 µM | < 0.05 µM | < 0.05 µM
C[C@H]1CCOc2c(cnn2C)-c2nccc(n2)Nc2cc(c(-c3ncc(CN4CCOCC4)s3)cn2)O1 [(115)] | < 0.05 µM | < 0.05 µM | < 0.05 µM | < 0.05 µM | < 0.05 µM | < 0.05 µM

Further lines, with some results ahead:

IC50 (EGFR^L858R) | IC50 (EGFR^L858R/T790M) | IC50 (EGFR^L858R/T790M/C797S) | Compound | GI50 [1] | GI50 (Ba/F3 EGFR-Del19/C797S) | GI50 (Ba/F3 EGFR-Del19/T790M)
< 0.05 µM | < 0.05 µM | < 0.05 µM | CC(C)n1cc(-c2cnc3cc2O[C@@H](C)CCOc2c(cnn2C)-c2nccc(n2)N3)c(OCC(F)F)n1 [(15)] | < 0.05 µM | < 0.05 µM | < 0.05 µM
< 0.05 µM | < 0.05 µM | < 0.05 µM | CCOc1nn(C2CCN(C)CC2F)cc1-c1cnc2cc1O[C@@H](C)CCOc1c(cnn1C)-c1nccc(n1)N2 (stereo partly drawn) [(16)] | < 0.05 µM | < 0.05 µM | < 0.05 µM
< 0.05 µM | < 0.05 µM | < 0.05 µM | CCOc1nn(C2CC2)cc1-c1cnc2cc1O[C@@H](C)CCOc1c(cnn1C)-c1nccc(n1)N2 [(18)] | < 0.05 µM | < 0.05 µM | < 0.05 µM
< 0.05 µM | < 0.05 µM | < 0.05 µM | CCOc1nn(C2CC2CN2CCOCC2)cc1-c1cnc2cc1O[C@@H](C)CCOc1c(cnn1C)-c1nccc(n1)N2 (stereo partly drawn) [(20)] | < 0.05 µM | < 0.05 µM | < 0.05 µM
< 0.05 µM | < 0.05 µM | < 0.05 µM | CCOc1nn(CC(F)F)cc1-c1cnc2cc1O[C@@H](C)CCOc1c(cnn1C)-c1nccc(n1)N2 [(29)] | < 0.05 µM | < 0.05 µM | < 0.05 µM
< 0.05 µM | < 0.05 µM | < 0.05 µM | CCOc1nn(C2CC3CCC(C2)O3)cc1-c1cnc2cc1O[C@@H](C)CCOc1c(cnn1C)-c1nccc(n1)N2 (stereo partly drawn) [(30)] | < 0.05 µM | < 0.05 µM | < 0.05 µM
< 0.05 µM | < 0.05 µM | < 0.05 µM | C[C@H]1CCOc2c(cnn2C)-c2nccc(n2)Nc2cc(c(-c3cn(C4CC4)nc3OCC(F)(F)F)cn2)O1 [(32)] | < 0.05 µM | < 0.05 µM | < 0.05 µM
< 0.05 µM | < 0.05 µM | < 0.05 µM | C[C@H]1CCOc2c(cnn2C)-c2nccc(n2)Nc2cc(c(-c3cn(C4CN(C5COC5)C4)nc3OCCF)cn2)O1 [(36)] | < 0.05 µM | < 0.05 µM | < 0.05 µM
< 0.05 µM | < 0.05 µM | < 0.05 µM | CCOc1nn(C2CCN(C3COC3)CC2)cc1-c1cnc2cc1O[C@@H](C)CCOc1c(cnn1C)-c1nccc(n1)N2 [(40)] | < 0.05 µM | < 0.05 µM | < 0.05 µM
< 0.05 µM | < 0.05 µM | < 0.05 µM | C[C@H]1CCOc2c(cnn2C)-c2nccc(n2)Nc2cc(c(-c3cn(C4CC4)nc3OCCF)cn2)O1 [(43)] | < 0.05 µM | < 0.05 µM | < 0.05 µM
< 0.05 µM | < 0.05 µM | < 0.05 µM | CCOC(=O)CN1CCC(n2cc(-c3cnc4cc3O[C@@H](C)CCOc3c(cnn3C)-c3nccc(n3)N4)c(OCC)n2)CC1 [(62)] | < 0.05 µM | < 0.05 µM | < 0.05 µM
≥ 1 µM | < 0.05 µM | 0.1 to 1 µM | C[C@H]1CCOc2c(cnn2C)-c2nccc(n2)Nc2cc(c(-c3ccnn3CCN3CCOCC3)cn2)O1 [(89)] | ≥ 1 µM | ≥ 1 µM | ≥ 1 µM
< 0.05 µM | < 0.05 µM | < 0.05 µM | C[C@H]1CCOc2c(cnn2C)-c2nccc(n2)Nc2cc(c(-c3ncc(CN4CCN(C)CC4)s3)cn2)O1 [(92)] | < 0.05 µM | < 0.05 µM | < 0.05 µM
0.1 to 1 µM | < 0.05 µM | < 0.05 µM | C[C@H]1CCOc2c(cnn2C)-c2nccc(n2)Nc2cc(c(-c3ccc(CN4CCN(C)CC4)n3C)cn2)O1 [(103)] | 0.1 to 1 µM | 0.1 to 1 µM | 0.1 to 1 µM
< 0.05 µM | < 0.05 µM | < 0.05 µM | C[C@H]1CCOc2c(cnn2C)-c2nccc(n2)Nc2cc(c(-c3cnn(CCCN(C)C)c3)cn2)O1 [(123)] | < 0.05 µM | < 0.05 µM | < 0.05 µM
< 0.05 µM | < 0.05 µM | < 0.05 µM | C[C@H]1CCOc2c(cnn2C)-c2nccc(n2)Nc2cc(c(-c3ccc(CN4CCOCC4)cc3)cn2)O1 [(124)] | < 0.05 µM | < 0.05 µM | < 0.05 µM
